Results as given in ChEMBL document CHEMBL5390253, “Discovery of Selective and Potent Macrocyclic CDK9 Inhibitors for the Treatment of Osimertinib-Resistant Non-Small-Cell Lung Cancer” (J Med Chem, 2023).
Converted amounts (≈) assume the structure as drawn. The source made the active and inactive calls. No cut-off for these calls is given here.

Assays:
[1] = biological target: Receptor-type tyrosine-protein kinase FLT3 (Homo sapiens) (UniProt P36888); assay: Inhibition of FLT3 (unknown origin) at 100 nM preincubated for 10 mins followed by substrate addition and measured after 60 mins in presence of ATP by ADP-Glo reagent based assay relative to control; conditions: time 70.0 min
A549 = assay: Antiproliferative activity against human A549 cells incubated for 72 hrs by MTT assay; type: functional, cell-based; conditions: A549, 72 h
NCI-H1975 [2] = assay: Antiproliferative activity against human NCI-H1975 cells incubated for 72 hrs by MTT assay; type: functional, cell-based; conditions: NCI-H1975, 72 h
[3] = biological target: Cyclin-dependent kinase 1/cyclin B1 (Homo sapiens) (UniProt P06493+P14635); assay: Inhibition of CDK1/Cyclin B1 (unknown origin) at 200 nM preincubated for 10 mins followed by substrate addition and measured after 60 mins in presence of ATP by ADP-Glo reagent based assay relative to control; type: protein-complex assay; conditions: time 70.0 min
[4] = biological target: Cyclin-Y/Cyclin-dependent kinase 16 (Homo sapiens) (UniProt Q00536+Q8ND76); assay: Inhibition of CDK16/cyclin Y (unknown origin) at 200 nM preincubated for 10 mins followed by substrate addition and measured after 60 mins in presence of ATP by ADP-Glo reagent based assay relative to control; type: protein-complex assay; conditions: time 70.0 min
[5] = biological target: Cyclin-C/Cyclin-dependent kinase 19 (Homo sapiens) (UniProt Q9BWU1+P24863); assay: Inhibition of CDK19/cyclin C (unknown origin) at 200 nM preincubated for 10 mins followed by substrate addition and measured after 60 mins in presence of ATP by ADP-Glo reagent based assay relative to control; type: protein-complex assay; conditions: time 70.0 min
[6] = biological target: Dual specificity protein kinase CLK3 (Homo sapiens) (UniProt P49761); assay: Inhibition of CLK3 (unknown origin) at 100 nM preincubated for 10 mins followed by substrate addition and measured after 60 mins in presence of ATP by ADP-Glo reagent based assay relative to control; conditions: time 70.0 min
[7] = biological target: Cyclin-dependent kinase 13/Cyclin-K (Homo sapiens) (UniProt Q14004+O75909); assay: Inhibition of CDK13/cyclin K (unknown origin) at 200 nM preincubated for 10 mins followed by substrate addition and measured after 60 mins in presence of ATP by ADP-Glo reagent based assay relative to control; type: protein-complex assay; conditions: time 70.0 min
[8] = Antiproliferative activity against human Osimertinib-resistant NCI-H1975 cell incubated for 72 hrs by MTT assay; type: functional, cell-based; conditions: NCI-H1975, 72 h
NCI-H596 = assay: Antiproliferative activity against human NCI-H596 cells incubated for 72 hrs by MTT assay; type: functional, cell-based; conditions: NCI-H596, 72 h
[9] = biological target: Dual specificity protein kinase CLK1 (Homo sapiens) (UniProt P49759); assay: Inhibition of CLK1 (unknown origin) at 500 nM preincubated for 10 mins followed by substrate addition and measured after 60 mins in presence of ATP by ADP-Glo reagent based assay relative to control; conditions: time 70.0 min
[10] = biological target: BDNF/NT-3 growth factors receptor (Homo sapiens) (UniProt Q16620); assay: Inhibition of TRKB (unknown origin) at 500 nM preincubated for 10 mins followed by substrate addition and measured after 60 mins in presence of ATP by ADP-Glo reagent based assay relative to control; conditions: time 70.0 min
[11] = biological target: Interleukin-1 receptor-associated kinase 1 (Homo sapiens) (UniProt P51617); assay: Inhibition of IRAK1 (unknown origin) at 500 nM preincubated for 10 mins followed by substrate addition and measured after 60 mins in presence of ATP by ADP-Glo reagent based assay relative to control; conditions: time 70.0 min
[12] = Inhibition of colony formation in human Osimertinib-resistant NCI-H1975 cell assessed as inhibition of cell growth at 125 nM measured after 2 weeks by crystal violet staining based analysis relative to control; type: functional; conditions: NCI-H1975, 336 h
NCI-H1975 [13] = assay: Downregulation of Mcl-1 level in human Osimertinib-resistant NCI-H1975 cell measured after 8 hrs by Western blotting analysis; type: functional, cell-based; conditions: dose 0.05-2 µM
[14] = Antiproliferative activity against human Osimertinib-resistant NCI-H1975 cell assessed as cell growth inhibition incubated for 72 hrs in presence of osimertinib by MTT assay; type: functional, cell-based; conditions: NCI-H1975, 72 h
NCI-H1975 [15] = assay: Induction of apoptosis in human Osimertinib-resistant NCI-H1975 cell assessed as increase in percentage of apoptotic cells measured after 16 hrs by Annexin V-FITC and PI staining based analysis; type: functional; conditions: dose 125-2000 nM
NCI-H1975 [16] = assay: Downregulation of cleaved caspase-3 level in human Osimertinib-resistant NCI-H1975 cell at 125 nM measured after 16 hrs in presence of osimertinib by Western blot analysis; type: functional, cell-based
[17] = Induction of apoptosis in human Osimertinib-resistant NCI-H1975 cell assessed as viable cells at 500 nM measured after 16 hrs by Annexin V-FITC and PI staining based analysis (reference value: 94.9%); type: functional; conditions: read-out: Activity
[18] = Induction of apoptosis in human Osimertinib-resistant NCI-H1975 cell assessed as late apoptotic cells at 125 nM measured after 16 hrs by Annexin V-FITC and PI staining based analysis (Rvb =2.84%); type: functional
[19] = Induction of apoptosis in human Osimertinib-resistant NCI-H1975 cell assessed as necrotic cells at 500 nM measured after 16 hrs by Annexin V-FITC and PI staining based analysis (reference value: 0.50%); type: functional
[20] = Induction of apoptosis in human Osimertinib-resistant NCI-H1975 cell assessed as viable cells at 125 nM measured after 16 hrs in presence of osimertinib by Annexin V-FITC and PI staining based analysis (reference value: 94.9%); type: functional; conditions: read-out: Activity
[21] = Induction of apoptosis in human Osimertinib-resistant NCI-H1975 cell assessed as necrotic cells at 125 nM measured after 16 hrs in presence of osimertinib by Annexin V-FITC and PI staining based analysis (reference value: 0.50%); type: functional
[22] = Half life in Sprague-Dawley rat at 2 mg/kg, iv measured upto 24 hrs; type: ADME, organism-based; conditions: in vivo
[23] = Apparent volume of distribution in Sprague-Dawley rat at 2 mg/kg, iv measured upto 24 hrs; type: ADME, organism-based; conditions: in vivo, read-out: Vz
[24] = Metabolic stability in rat liver microsomes assessed as half life at 10 uM measured at 5 to 60 mins by LC-MS/MS analysis; type: ADME, Microsome; conditions: time 5-60 min
[25] = Solubility of the compound in water at pH 7.4 by shake flask method; type: physicochemical
[26] = Toxicity in ICR mouse assessed as effect on physical appearance at 100 mg/kg, iv measured for 8 to 9 days; type: organism-based; conditions: in vivo, time 8-9 day
[27] = Toxicity in ICR mouse assessed as morphological changes in spleen at 1000 mg/kg, po measured after 9 days by H and E staining based analysis; type: organism-based; conditions: in vivo, 216 h, time 9 day
[28] = Antiproliferative activity against 3D-cultured human Osimertinib-resistant HCC827 cell incubated for 72 hrs by MTT assay; type: functional, cell-based; conditions: Osimertinib-resistant HCC827AR cell
[29] = Antitumor activity against patient derived #0085 lung cancer organoid assessed as inhibition of growth measured after 4 days; type: functional, tissue-based; conditions: Homo sapiens, 96 h
[30] = Antitumor activity against patient derived #0416 lung cancer organoid assessed as inhibition of growth measured after 4 days; type: functional, tissue-based; conditions: Homo sapiens, 96 h
[31] = Antitumor activity against patient derived #2566 lung cancer organoid assessed as inhibition of growth measured after 4 days; type: functional, tissue-based; conditions: Homo sapiens, 96 h

Cyclin-dependent kinase 13/Cyclin-K (Homo sapiens), sequence (O75909 whole entry, looked up): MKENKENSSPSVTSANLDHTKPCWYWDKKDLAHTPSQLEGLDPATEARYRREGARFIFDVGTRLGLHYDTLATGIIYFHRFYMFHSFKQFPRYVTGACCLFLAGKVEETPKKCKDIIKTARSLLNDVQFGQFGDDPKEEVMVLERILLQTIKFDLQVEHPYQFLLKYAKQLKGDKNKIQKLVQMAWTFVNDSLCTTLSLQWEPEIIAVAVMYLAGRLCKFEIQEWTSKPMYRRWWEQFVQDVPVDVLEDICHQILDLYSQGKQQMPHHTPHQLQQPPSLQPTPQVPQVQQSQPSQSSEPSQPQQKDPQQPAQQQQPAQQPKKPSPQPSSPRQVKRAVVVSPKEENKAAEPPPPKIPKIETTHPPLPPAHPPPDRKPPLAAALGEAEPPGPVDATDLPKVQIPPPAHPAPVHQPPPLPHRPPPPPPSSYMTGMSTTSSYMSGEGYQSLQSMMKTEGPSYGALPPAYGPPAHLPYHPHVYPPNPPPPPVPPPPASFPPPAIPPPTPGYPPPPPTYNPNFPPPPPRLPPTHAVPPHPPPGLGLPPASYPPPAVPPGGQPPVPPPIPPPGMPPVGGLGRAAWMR
Cyclin-dependent kinase 13/Cyclin-K (Homo sapiens), sequence (Q14004 whole entry, looked up): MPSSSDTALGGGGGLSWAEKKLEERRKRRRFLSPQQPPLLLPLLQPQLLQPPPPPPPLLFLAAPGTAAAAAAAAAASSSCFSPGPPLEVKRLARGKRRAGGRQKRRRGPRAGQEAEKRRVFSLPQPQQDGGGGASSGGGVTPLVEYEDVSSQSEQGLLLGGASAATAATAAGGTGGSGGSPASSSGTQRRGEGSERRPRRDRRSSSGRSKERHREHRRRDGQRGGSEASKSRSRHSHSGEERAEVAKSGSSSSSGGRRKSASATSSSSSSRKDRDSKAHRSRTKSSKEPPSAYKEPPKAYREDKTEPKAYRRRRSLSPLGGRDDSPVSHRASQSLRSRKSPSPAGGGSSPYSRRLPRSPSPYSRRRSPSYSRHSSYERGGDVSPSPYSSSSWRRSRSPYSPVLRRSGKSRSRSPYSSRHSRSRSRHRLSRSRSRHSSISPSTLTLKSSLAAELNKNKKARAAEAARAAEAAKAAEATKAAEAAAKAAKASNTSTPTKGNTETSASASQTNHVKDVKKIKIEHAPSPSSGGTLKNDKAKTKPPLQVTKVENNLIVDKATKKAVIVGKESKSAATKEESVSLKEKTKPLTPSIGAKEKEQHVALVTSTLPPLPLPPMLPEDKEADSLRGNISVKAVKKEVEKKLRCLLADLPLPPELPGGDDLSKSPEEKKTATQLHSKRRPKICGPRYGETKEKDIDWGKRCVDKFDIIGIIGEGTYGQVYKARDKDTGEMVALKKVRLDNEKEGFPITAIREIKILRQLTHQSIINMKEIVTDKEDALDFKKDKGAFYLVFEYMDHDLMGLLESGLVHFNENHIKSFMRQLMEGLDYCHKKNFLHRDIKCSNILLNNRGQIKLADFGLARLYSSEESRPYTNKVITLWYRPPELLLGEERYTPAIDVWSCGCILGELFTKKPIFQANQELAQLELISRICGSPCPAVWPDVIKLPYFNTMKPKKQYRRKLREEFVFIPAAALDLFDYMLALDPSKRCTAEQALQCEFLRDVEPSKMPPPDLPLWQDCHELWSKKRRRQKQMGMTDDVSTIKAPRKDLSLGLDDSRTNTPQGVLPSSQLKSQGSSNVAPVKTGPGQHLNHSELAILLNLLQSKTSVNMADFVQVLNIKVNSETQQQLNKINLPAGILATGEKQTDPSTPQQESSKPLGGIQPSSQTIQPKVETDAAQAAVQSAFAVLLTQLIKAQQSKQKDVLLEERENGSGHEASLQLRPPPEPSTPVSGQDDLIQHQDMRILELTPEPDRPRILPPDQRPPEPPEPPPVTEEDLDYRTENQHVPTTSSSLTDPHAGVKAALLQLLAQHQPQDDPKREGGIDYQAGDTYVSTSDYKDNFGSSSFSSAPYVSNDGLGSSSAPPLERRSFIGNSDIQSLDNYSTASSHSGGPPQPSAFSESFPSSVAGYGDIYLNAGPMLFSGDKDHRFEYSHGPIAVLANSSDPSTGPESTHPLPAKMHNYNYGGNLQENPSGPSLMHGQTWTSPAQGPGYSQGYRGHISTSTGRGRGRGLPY
Receptor-type tyrosine-protein kinase FLT3 (Homo sapiens), sequence (P36888 whole entry): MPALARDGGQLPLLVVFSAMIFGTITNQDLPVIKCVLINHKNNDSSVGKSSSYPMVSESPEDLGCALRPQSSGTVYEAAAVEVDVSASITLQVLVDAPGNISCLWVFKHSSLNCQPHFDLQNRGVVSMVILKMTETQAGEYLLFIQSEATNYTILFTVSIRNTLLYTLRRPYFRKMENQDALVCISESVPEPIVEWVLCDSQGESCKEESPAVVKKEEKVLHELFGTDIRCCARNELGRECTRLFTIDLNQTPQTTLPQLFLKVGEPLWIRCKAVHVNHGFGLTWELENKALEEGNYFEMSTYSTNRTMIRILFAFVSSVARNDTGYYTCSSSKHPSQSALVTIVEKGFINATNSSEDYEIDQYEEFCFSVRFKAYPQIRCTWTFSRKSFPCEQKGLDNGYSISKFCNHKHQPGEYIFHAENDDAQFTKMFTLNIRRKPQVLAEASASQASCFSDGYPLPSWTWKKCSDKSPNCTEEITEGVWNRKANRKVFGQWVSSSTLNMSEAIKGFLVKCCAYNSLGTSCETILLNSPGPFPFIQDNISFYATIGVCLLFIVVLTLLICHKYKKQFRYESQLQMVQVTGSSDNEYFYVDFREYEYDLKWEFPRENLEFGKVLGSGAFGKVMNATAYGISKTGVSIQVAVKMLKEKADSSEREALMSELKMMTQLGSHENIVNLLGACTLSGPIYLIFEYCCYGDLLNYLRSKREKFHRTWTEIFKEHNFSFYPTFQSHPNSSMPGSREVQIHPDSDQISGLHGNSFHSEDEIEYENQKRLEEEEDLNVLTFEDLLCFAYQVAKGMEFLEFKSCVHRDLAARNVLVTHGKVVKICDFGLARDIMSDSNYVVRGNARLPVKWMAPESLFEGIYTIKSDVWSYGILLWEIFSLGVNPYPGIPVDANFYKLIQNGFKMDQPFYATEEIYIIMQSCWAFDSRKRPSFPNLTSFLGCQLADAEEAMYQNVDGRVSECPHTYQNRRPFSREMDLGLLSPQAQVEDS
Cyclin-dependent kinase 1/cyclin B1 (Homo sapiens), sequence (P06493 whole entry, looked up): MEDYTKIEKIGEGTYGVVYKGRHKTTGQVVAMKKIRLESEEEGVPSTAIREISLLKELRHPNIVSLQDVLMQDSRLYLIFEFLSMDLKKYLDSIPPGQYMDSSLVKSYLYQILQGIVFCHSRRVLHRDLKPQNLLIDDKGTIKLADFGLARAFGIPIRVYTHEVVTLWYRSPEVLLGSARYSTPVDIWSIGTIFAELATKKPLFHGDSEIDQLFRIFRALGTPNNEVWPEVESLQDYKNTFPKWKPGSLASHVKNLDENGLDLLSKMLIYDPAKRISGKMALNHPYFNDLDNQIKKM
Cyclin-dependent kinase 1/cyclin B1 (Homo sapiens), sequence (P14635 whole entry, looked up): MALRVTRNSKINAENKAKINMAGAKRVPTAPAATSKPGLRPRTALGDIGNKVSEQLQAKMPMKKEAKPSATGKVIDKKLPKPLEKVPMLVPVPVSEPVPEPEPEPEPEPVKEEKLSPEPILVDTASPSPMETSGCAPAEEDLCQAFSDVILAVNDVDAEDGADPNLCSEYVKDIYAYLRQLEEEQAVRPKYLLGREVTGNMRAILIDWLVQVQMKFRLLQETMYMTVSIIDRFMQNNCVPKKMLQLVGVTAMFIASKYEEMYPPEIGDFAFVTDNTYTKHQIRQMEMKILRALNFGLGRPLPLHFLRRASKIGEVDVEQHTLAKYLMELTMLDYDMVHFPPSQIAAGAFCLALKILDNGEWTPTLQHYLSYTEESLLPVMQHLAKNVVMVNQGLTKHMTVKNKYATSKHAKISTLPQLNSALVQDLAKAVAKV
Dual specificity protein kinase CLK1 (Homo sapiens), sequence (P49759 whole entry, looked up): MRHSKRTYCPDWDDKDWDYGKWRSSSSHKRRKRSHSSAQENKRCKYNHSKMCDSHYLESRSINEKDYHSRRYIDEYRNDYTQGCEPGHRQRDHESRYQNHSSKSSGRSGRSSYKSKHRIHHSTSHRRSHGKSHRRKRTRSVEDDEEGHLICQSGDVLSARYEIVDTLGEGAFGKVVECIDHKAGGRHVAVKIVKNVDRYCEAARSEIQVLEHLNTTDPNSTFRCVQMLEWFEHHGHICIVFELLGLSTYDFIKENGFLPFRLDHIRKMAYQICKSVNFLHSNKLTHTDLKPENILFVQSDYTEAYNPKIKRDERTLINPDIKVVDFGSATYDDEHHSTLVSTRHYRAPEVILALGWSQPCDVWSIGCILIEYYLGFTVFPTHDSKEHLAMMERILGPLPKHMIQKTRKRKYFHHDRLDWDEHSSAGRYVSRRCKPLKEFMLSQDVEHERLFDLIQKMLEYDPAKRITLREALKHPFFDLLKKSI
Interleukin-1 receptor-associated kinase 1 (Homo sapiens), sequence (P51617 whole entry, looked up): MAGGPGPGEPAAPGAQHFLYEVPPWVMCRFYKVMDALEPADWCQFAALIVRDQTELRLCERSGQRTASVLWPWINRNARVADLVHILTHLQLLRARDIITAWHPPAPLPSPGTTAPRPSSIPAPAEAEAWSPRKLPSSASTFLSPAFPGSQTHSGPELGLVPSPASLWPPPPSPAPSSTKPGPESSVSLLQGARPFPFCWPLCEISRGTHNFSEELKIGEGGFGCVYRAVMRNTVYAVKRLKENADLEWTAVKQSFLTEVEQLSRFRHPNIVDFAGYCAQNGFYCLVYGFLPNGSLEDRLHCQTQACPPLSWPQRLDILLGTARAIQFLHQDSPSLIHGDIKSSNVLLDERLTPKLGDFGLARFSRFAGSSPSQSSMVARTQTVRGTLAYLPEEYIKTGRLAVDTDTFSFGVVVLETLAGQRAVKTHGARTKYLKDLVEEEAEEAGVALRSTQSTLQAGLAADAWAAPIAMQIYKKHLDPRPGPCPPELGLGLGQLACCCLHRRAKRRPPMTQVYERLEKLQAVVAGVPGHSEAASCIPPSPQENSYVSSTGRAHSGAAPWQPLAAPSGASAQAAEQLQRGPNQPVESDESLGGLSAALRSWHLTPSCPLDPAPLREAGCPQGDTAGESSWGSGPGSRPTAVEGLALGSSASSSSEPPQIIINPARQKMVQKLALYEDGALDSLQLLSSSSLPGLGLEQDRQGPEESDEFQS

- inhibition [1]: 21.2%
- IC50 (A549): 409 nM
- IC50 (NCI-H1975 [2]): 174 nM
- inhibition [3]: 33%
- inhibition [4]: 25.9%
- inhibition [5]: 11.5%
- inhibition [6]: 5.7%
- inhibition [7]: 46.7%
- IC50 (NCI-H596): 332 nM
- inhibition [9]: 96.5%
- inhibition [10]: 80.7%
- inhibition [11]: 73.5%
- half-life [22]: 108 min
- Vd [23]: 12 L/kg
- half-life at 10 µM [24]: 6.8 min
- solubility thermodynamic [25]: 626 µg/mL (≈ 1130 µM)
Compound: O=C(NCCN1CCOCC1)c1ccc2cc1OCCCCCCOc1cc(ccc1F)-c1nc(ncc1F)N2
- IC50 [8]: 251 nM
- inhibition at 0.125 µM [12]: 100%
- Activity (NCI-H1975 [13]): Dose-Dependent Effect
- IC50 [14]: 83 nM
- Activity (NCI-H1975 [15]): Dose-Dependent Effect
- Activity (NCI-H1975 [16]): Active
- viability at 0.5 µM [17]: 75.6%
- Activity [18]: 3.15%
- Activity [19]: 2.92%
- viability at 0.125 µM [20]: 78.3%
- Activity [21]: 0.27%
- Activity [26]: Non-Toxic
- Activity [27]: Non-Toxic
- IC50 [28]: 330 nM
- IC50 [29]: 130 nM
- IC50 [30]: 79 nM
- IC50 [31]: < 20 nM
